Experimental data: article PMC10891031 (2024)

Assay: plasma from a Sprague Dawley rat
Details: 37 °C, up to 15 min

- fragment found: [^18F]FNA, 5 min
Substance: H-ACGLSGLGVA-NH2
